Test results published in patent US20250170126A1 (MITSUBISHI TANABE PHARMA CORPORATION, priority 2022, published 2025).

Each compound was assayed against Human B0AT1 (Homo sapiens (Human), UniProt Q695T7) (assay: hB0AT1 inhibitory test (phenylalanine uptake)). Conditions: Human B0AT1 stable expression CHO cells; [3H]-L-phenylalanine uptake, phenylalanine 0.25 mM.
Assay type: cell-based
Outline: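 CHO cells stably expressing human B0AT1, in sodium-containing HEPES buffer with 0.01% BSA, preincubated with compound (0.5% DMSO) 30 min or longer at ambient temperature. Uptake of [3H]-L-phenylalanine (0.25 mM final) read by scintillation, analysed at 100-200 min; non-specific uptake from […] N-(4-bromophenyl)-3,5-dichloro-2-hydroxybenzamide, IC50 by logistic nonlinear regression.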

Human B0AT1, sequence (Q695T7 whole entry): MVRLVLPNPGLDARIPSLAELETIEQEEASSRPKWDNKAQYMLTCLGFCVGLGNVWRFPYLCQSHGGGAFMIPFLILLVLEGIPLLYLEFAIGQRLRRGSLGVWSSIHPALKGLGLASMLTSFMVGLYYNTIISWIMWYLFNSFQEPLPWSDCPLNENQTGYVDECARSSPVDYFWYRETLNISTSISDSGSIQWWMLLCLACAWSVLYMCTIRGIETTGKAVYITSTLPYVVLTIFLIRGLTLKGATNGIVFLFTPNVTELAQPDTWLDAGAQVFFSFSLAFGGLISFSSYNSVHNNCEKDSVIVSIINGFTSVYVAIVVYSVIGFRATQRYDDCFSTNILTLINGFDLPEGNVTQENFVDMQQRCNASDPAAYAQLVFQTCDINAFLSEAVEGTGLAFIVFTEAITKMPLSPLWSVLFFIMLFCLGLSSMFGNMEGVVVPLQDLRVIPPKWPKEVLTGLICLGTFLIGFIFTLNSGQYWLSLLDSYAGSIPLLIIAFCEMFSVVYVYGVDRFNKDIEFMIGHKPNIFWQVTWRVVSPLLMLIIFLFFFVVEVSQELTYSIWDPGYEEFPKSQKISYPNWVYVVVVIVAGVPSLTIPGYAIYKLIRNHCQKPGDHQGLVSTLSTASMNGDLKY

Q: For `O=C(/C=C/c1ccc(C(F)(F)F)cc1)NCC(=O)N1CCCc2ccccc21` [I-87], which IC50 is on record?
A: The IC50 was 124 nM.

Q: How did the IC50 turn out when `O=C(/C=C/c1ccc(C(F)(F)F)cc1F)NCC(=O)N1CCc2cc(Br)cc(F)c2C1` [I-236] was run?
A: The IC50 was 34 nM.

Q: Which IC50 does the source give for `O=C(/C=C/c1ccc(C(F)(F)F)cc1)NCC(=O)N1CCn2nc(C(F)(F)F)nc2C1` [I-172] here?
A: Its IC50 is 44 nM.

Q: How did the IC50 turn out when `O=C(/C=C/c1ccc(C(F)(F)F)cc1)NCC(=O)N1CCCc2cnccc21` [I-186] was run?
A: Its IC50 is 10 nM.

Q: With `CCOCCN(CCOCC)C(=O)CNC(=O)/C=C/c1ccc(C(F)(F)F)cc1` [I-10] as the compound, how does the IC50 read?
A: Its IC50 is 803 nM.

Q: With `CS(=O)(=O)[C@@H]1CCN(C(=O)CNC(=O)/C=C/c2ccc(C(F)(F)F)cc2)C1` [I-47] as the compound, how does the IC50 read?
A: The IC50 was 550 nM.

Q: `O=C(/C=C/c1ccc(C(F)(F)F)cc1)NCC(=O)N1CCn2nc(C(F)F)cc2C1` [I-282, (E)-N-[2-[2-(difluoromethyl)-6,7-dihydro-4H-pyrazolo [1,5-a]pyrazin-5-yl]-2-oxoethyl]-3-[4-(trifluoromethyl)phenyl]prop-2-enamide] was tested. Which IC50 did it give?
A: Its IC50 is 26 nM.

Q: With `O=C(/C=C/c1ccc(C(F)(F)F)cc1)NCC(=O)N1CCn2nc(C(=O)O)cc2C1` [I-273] as the compound, how does the IC50 read?
A: Its IC50 is 125 nM.

Q: Which IC50 does the source give for `O=C(/C=C/c1ccc(C(F)(F)F)cc1)NCC(=O)N1CCc2cccc(C(F)(F)F)c2C1` [I-191] here?
A: The IC50 was 31 nM.

Q: With `CN(C)C(=O)CNC(=O)/C=C/c1ccc(C(F)(F)F)cc1` [I-104] as the compound, how does the IC50 read?
A: The IC50 was 2030 nM.

Q: `CC(C)N1CCN(C(=O)CNC(=O)/C=C/c2ccc(C(F)(F)F)cc2)CC1` [I-24] was tested. Which IC50 did it give?
A: Its IC50 is 58 nM.

Q: How did the IC50 turn out when `CC1Cn2ncnc2CN1C(=O)CNC(=O)/C=C/c1ccc(C(F)(F)F)cc1` (stereo not shown) [I-97] was run?
A: Its IC50 is 397 nM.

Q: `O=C(/C=C/c1ccc(C(F)(F)F)cc1)NCC(=O)N1CCC(c2cccnc2)C1` (stereo not shown) [I-71] was tested. Which IC50 did it give?
A: The IC50 was 1340 nM.

Q: For `CCCOc1ccc(/C=C/C(=O)NCC(=O)N2CCN(C)CC2)cc1` [I-108], which IC50 is on record?
A: The IC50 was 104 nM.

Q: Which IC50 does the source give for `O=C(/C=C/c1ccc(C(F)(F)F)cc1)NCC(=O)N1CCc2cccc(Br)c2C1` [I-196] here?
A: Its IC50 is 17 nM.

Q: For `O=C(/C=C/c1ccc(C(F)(F)F)cc1)NCC(=O)N1CCCc2ncccc21` [I-185], which IC50 is on record?
A: Its IC50 is 31 nM.

Q: `CC(C)CNC(=O)C1CN(C(=O)CNC(=O)/C=C/c2ccc(C(F)(F)F)cc2)Cc2ccccc21` (stereo not shown) [I-278, N-(2-methylpropyl)-2-[2-[[(E)-3-[4-(trifluoromethyl)phenyl]prop-2-enoyl]amino]acetyl]-3,4-dihydro-1H-isoquinoline-4-carboxamide] was tested. Which IC50 did it give?
A: The IC50 was 87 nM.

Q: For `O=C(/C=C/c1ccc(C(F)(F)F)cc1)NCC(=O)N1Cc2ccnn2C[C@@H]1C(=O)O` [I-283, (6R)-5-[2-[[(E)-3-[4-(trifluoromethyl)phenyl]prop-2-enoyl]amino]acetyl]-6,7-dihydro-4H-pyrazolo[1,5-a]pyrazine-6-carboxylic acid], which IC50 is on record?
A: The IC50 was 361 nM.

Q: For `COCCN(Cc1cc(OC)ccn1)C(=O)CNC(=O)/C=C/c1ccc(C(F)(F)F)cc1` [I-53], which IC50 is on record?
A: The IC50 was 54 nM.

Q: `N#Cc1ccc2c(c1)CN(C(=O)CNC(=O)/C=C/c1ccc(C(F)(F)F)cc1)CC2` [I-197] was tested. Which IC50 did it give?
A: The IC50 was 25 nM.

Q: Which IC50 does the source give for `O=C(/C=C/c1ccc(C(F)(F)F)cc1)NCC(=O)N1CCc2oncc2C1` [I-39] here?
A: The IC50 was 29 nM.

Q: Which IC50 does the source give for `O=C(/C=C/c1ccc(C(F)(F)F)cc1)NCC(=O)N(CCO)Cc1ccccn1` [I-85] here?
A: Its IC50 is 186 nM.
